Values joined by “and” are separate entries in the source; they are usually repeats but may differ in a detail not shown here. Identical values can stand only once.
What was measured:
[1] = test system: porcine epidemic diarrhea virus (PEDV); experiment: Inhibition of PEDV replication in infected Vero E6 cells (vRNA in supernatant by qRT-PCR); type: cell-based; details: 10 μM and 2 μM, MOI 0.05, 24 h, FIG. 1
Method: This Example evaluated whether bromophenol-pyrazoline compounds can inhibit replication of porcine coronavirus in Vero E6 cells infected with clinically isolated strains of porcine epidemic diarrhea virus (PEDV).
(§1) Specific operation: pre-seeded Vero E6 cells (5×10^4 cells/well) were respectively pretreated for 1 h with different concentrations of bromophenol-pyrazoline compounds to be tested (2 μM and 10 μM), and then infected with porcine coronavirus (PEDV; MOI: 0.05) for 2 h. Then, a virus-compound mixture was removed, and the cells were further cultured with a fresh medium containing the bromophenol-pyrazoline compound. After 24 hours, a cell supernatant was collected, and vRNA in the supernatant was analyzed by qRT-PCR. The treatment without a bromophenol-pyrazoline compound was used as a control.

[2] = test system: porcine transmissible gastroenteritis virus (TGEV); experiment: Inhibition of TGEV replication in infected Vero E6 cells (vRNA in supernatant by qRT-PCR); type: cell-based; details: 10 μM and 2 μM, MOI 0.05, 24 h, FIG. 2
Method: This Example evaluated whether bromophenol-pyrazoline compounds can inhibit replication of porcine coronavirus in Vero E6 cells infected with clinically isolated strains of porcine transmissible gastroenteritis virus (TGEV).
as §1, with “(TGEV;” for “(PEDV;”

[3] = test system: porcine epidemic diarrhea virus; experiment: Clinical trial in diseased pigs with epidemic diarrhea (PEDV infection); type: in vivo, pig; details: for Diarrhea Scoring Index: individual pigs, 0 formed manure, 1 thick not formed, 2 manure and water separation, 3 watery manure; for Effective rate / Number of deaths / Mortality rate: diseased pigs within 10 days of age; for Effective rate: 72 h, based on diarrhea scoring index; for Number of deaths: 72 h observation, treatment twice a day; for Mortality rate: piglet deaths at end of 72 h test
Method: Through the PCR detection of diseased pig tissues at Zhucheng Pig Farm in November 2020, the type of viral infection was determined.
Diseased pigs with epidemic diarrhea within 10 days of age were selected and randomly divided into 4 groups, i.e. untreated group, traditional Chinese medicine treatment group, compound 4 treatment group and lgY antibody treatment group, respectively. The traditional Chinese medicine treatment group was drenched with a compound decoction consisting of dandelion, Chinese violet, coptis, isatis root, etc., twice a day for 3 consecutive days. Compound 4 was taken at a dose of 25 mg/pig after being dissolved in a dextrose solution, twice a day. The lgY antibody treatment group was fed with chicken egg antibodies (lgY), twice a day. The untreated group, the traditional Chinese medicine treatment group and the lgY antibody treatment group were respectively drenched with the same dose of the glucose solution as the compound 4 treatment group. The pigs were breast-fed during treatment.
During the clinical treatment of the diseased pigs with epidemic diarrhea, the diarrhea indexes of the diseased pigs in the untreated group (6 pigs), the compound 4 treatment group (8 pigs) and the lgY antibody treatment group (6 pigs) were scored through sampling.

Question: Which results are given for `CC(C)(C)c1ccc(Oc2ccc(C3=NN(C(N)=S)C(c4ccc(O)c(O)c4)C3)cc2)cc1` (centres unmarked) [Compound 4]?
Answer: inhibitory activity against replication of PEDV (viral RNA) [1]: strongest inhibitory activity; inhibitory activity against replication of TGEV (viral RNA) [2]: strongest inhibitory activity; alleviation of diarrhea ([3]; 8 scored diseased pigs, 24 h after oral administration): significantly alleviated diarrhea; curative ratio ([3]; 8 scored diseased pigs, 72 h after oral administration): 100%; Diarrhea Scoring Index ([3]; 12 h after administration): 3 (7×) and 2; Diarrhea Scoring Index ([3]; 24 h after administration): 2 (7×) and 1; Diarrhea Scoring Index ([3]; 48 h after administration): 0 (5×) and 1 (2×) and 2; Diarrhea Scoring Index ([3]; 72 h after administration): 0; Effective rate [3]: 100%; Effective rate ([3]; listed as compound 4): 100%; Number of deaths [3]: 0; Number of deaths ([3]; listed as compound 4): no pig died; Mortality rate [3]: 0%; Mortality rate ([3]; listed as compound 4): 0%
